Laboratory results taken from patent US20240116988A1, “ANTI-ROR1 MACROCYCLIC PEPTIDES AND COMPOSITIONS” (BRISTOL-MYERS SQUIBB COMPANY, priority 2022, published 2024).
Positions of bridges follow the written chain, without caps; N, C: chain ends. Non-standard residues stand in square brackets, D forms with d. Residues, ends and D or L forms follow the SMILES beside them. ξ: configuration not given here. NMeF = CN[C@@H](Cc1ccccc1)C(=O)O; Ile(3ξ) = CCC(C)[C@H](N)C(=O)O

Biological target: T1, human ROR1 (Homo sapiens, UniProt Q01973)
T1 construct: host or cells: HEK 293T cells, Tet-on system induced with doxycycline
T1 sequence (Q01973 30-937): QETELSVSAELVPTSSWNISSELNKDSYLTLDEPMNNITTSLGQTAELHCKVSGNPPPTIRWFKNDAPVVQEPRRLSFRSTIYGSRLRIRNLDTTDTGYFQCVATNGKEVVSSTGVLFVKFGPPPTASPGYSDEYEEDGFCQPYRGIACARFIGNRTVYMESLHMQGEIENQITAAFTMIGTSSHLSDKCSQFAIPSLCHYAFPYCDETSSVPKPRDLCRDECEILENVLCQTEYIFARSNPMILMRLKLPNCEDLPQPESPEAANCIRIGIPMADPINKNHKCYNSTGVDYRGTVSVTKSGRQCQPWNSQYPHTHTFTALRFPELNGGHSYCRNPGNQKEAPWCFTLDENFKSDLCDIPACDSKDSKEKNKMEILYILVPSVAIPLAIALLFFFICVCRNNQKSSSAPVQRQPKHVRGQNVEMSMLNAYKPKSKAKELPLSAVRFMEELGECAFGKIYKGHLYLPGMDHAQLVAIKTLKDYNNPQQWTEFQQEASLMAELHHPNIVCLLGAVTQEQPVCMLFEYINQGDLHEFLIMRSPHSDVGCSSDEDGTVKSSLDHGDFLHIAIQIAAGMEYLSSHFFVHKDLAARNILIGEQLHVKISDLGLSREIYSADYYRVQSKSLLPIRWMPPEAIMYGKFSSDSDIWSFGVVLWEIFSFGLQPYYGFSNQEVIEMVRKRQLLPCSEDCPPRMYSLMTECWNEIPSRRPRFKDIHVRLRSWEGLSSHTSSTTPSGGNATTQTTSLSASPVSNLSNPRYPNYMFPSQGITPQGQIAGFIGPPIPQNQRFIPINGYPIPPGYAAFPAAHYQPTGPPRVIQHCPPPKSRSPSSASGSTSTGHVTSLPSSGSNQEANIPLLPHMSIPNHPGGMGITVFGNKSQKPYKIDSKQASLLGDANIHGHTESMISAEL
Test: ROR1 high content cell-based binding assay
Details: read-out: ROR1 Binding 293T Human HC Cell Based Assay IC50
Procedure: ROR1 high content cell-based binding assay: Human embryonic kidney 293T cells (293T) expressing human ROR1 with Tet-on system by doxycycline were used (Arctic-488134) for the assessment of inhibition of the binding of fluorescently-labeled competing peptide (“Probe”) that specifically binds to human ROR1. […] Cryopreserved vials were thawed in a 37° C. water bath. Cells were washed in assay culture media [DMEM (Life Technologies Inc. Cat. […] Cat. No. 15140-122) and […] dox] and diluted 1.0×10^5 cells/mL. Cells were seeded into PDL-coated 384 well plates (BD Falcon Cat. No. 356663) at 2,000 cells/20 μL. Plates were allowed to incubate for 10 minutes at room temperature and then transferred to a 37° C./5% CO2 incubator for overnight incubation. The next day, 125 nL of the test compound was added using an ECHO followed by the addition of 5 μL/well of 5-FAM-labeled probe to cells at a final concentration of 30 nM. Sample were incubated for 1 hour at 37° C. for 1 hour, followed by 3 washes in […] of dPBS. Cells were fixed by adding 8% (w/v) formaldehyde (Sigma Cat. No. 252549), 20 μg/mL Hoechst (Thermo Scientific Cat. No. 62249) in PBS for 20 minutes at room temperature. The plates were washed 3 more times in dPBS and 15 μl of PBS was left in the wells following the last wash. The plates were sealed, and data was using obtained using a CellInsight NXT High Content Screening Platform IC903000 (Thermo Scientific).

| IC50 [nM] | Compound |
| --- | --- |
| 7 | CC(C)C[C@@H]1NC(=O)[C@H](Cc2ccc(O)cc2)NC(=O)[C@H](Cc2ccccc2)NC(=O)CSC[C@@H](C(N)=O)NC(=O)[C@H](CC(C)C)NC(=O)[C@H](Cc2ccccc2)N(C)C(=O)[C@H](Cc2ccc(O)cc2)NC(=O)[C@H](Cc2c[nH]c3ccccc23)NC(=O)CNC(=O)[C@H](CO)NC(=O)[C@H](Cc2ccc(O)cc2)NC(=O)[C@H](C(C)C)NC1=O [Example 1036] ({CH2CO}-FYLVYSGWY[NMeF]LC-NH2; thioether N-12) |
| 251 | CC(C)C[C@@H]1NC(=O)[C@H](Cc2ccc(O)cc2)NC(=O)[C@H](C)NC(=O)CSC[C@@H](C(=O)NCC(N)=O)NC(=O)[C@H](CC(C)C)NC(=O)[C@H](Cc2ccccc2)N(C)C(=O)[C@H](Cc2ccc(O)cc2)NC(=O)[C@H](Cc2c[nH]c3ccccc23)NC(=O)CNC(=O)[C@H](CO)NC(=O)[C@H](Cc2ccc(O)cc2)NC(=O)[C@H](C(C)C)NC1=O [Example 1037] ({CH2CO}-AYLVYSGWY[NMeF]LCG-NH2; thioether N-12) |
| 23 | CC(C)C[C@@H]1NC(=O)[C@H](C)NC(=O)[C@H](Cc2ccccc2)NC(=O)CSC[C@@H](C(=O)NCC(N)=O)NC(=O)[C@H](CC(C)C)NC(=O)[C@H](Cc2ccccc2)N(C)C(=O)[C@H](Cc2ccc(O)cc2)NC(=O)[C@H](Cc2c[nH]c3ccccc23)NC(=O)CNC(=O)[C@H](CO)NC(=O)[C@H](Cc2ccc(O)cc2)NC(=O)[C@H](C(C)C)NC1=O [Example 1038] ({CH2CO}-FALVYSGWY[NMeF]LCG-NH2; thioether N-12) |
| 681 | CC(C)C[C@@H]1NC(=O)[C@H](Cc2ccc(O)cc2)NC(=O)[C@H](Cc2ccccc2)NC(=O)CSC[C@@H](C(=O)NCC(N)=O)NC(=O)[C@H](CC(C)C)NC(=O)[C@H](Cc2ccccc2)N(C)C(=O)[C@H](C)NC(=O)[C@H](Cc2c[nH]c3ccccc23)NC(=O)CNC(=O)[C@H](CO)NC(=O)[C@H](Cc2ccc(O)cc2)NC(=O)[C@H](C(C)C)NC1=O [Example 1039] ({CH2CO}-FYLVYSGWA[NMeF]LCG-NH2; thioether N-12) |
| 17 | CC(C)C[C@@H]1NC(=O)[C@H](Cc2ccccc2)N(C)C(=O)[C@H](Cc2ccc(O)cc2)NC(=O)[C@H](Cc2c[nH]c3ccccc23)NC(=O)CNC(=O)[C@H](CO)NC(=O)[C@H](Cc2ccc(O)cc2)NC(=O)[C@H](C(C)C)NC(=O)[C@H](C)NC(=O)[C@H](Cc2ccc(O)cc2)NC(=O)[C@H](Cc2ccccc2)NC(=O)CSC[C@@H](C(=O)NCC(N)=O)NC1=O [Example 1040] ({CH2CO}-FYAVYSGWY[NMeF]LCG-NH2; thioether N-12) |
| 12 | CC(C)C[C@@H]1NC(=O)[C@H](Cc2ccc(O)cc2)NC(=O)[C@H](Cc2ccccc2)NC(=O)CSC[C@@H](C(=O)NCC(N)=O)NC(=O)[C@H](CC(C)C)NC(=O)[C@H](Cc2ccccc2)N(C)C(=O)[C@H](Cc2ccc(O)cc2)NC(=O)[C@H](Cc2c[nH]c3ccccc23)NC(=O)CNC(=O)[C@H](CO)NC(=O)[C@H](Cc2ccc(O)cc2)NC(=O)[C@H](C)NC1=O [Example 1041] ({CH2CO}-FYLAYSGWY[NMeF]LCG-NH2; thioether N-12) |
| 31 | CC(C)C[C@@H]1NC(=O)[C@H](Cc2ccc(O)cc2)NC(=O)[C@H](Cc2ccccc2)NC(=O)CSC[C@@H](C(=O)NCC(N)=O)NC(=O)[C@H](C)NC(=O)[C@H](Cc2ccccc2)N(C)C(=O)[C@H](Cc2ccc(O)cc2)NC(=O)[C@H](Cc2c[nH]c3ccccc23)NC(=O)CNC(=O)[C@H](CO)NC(=O)[C@H](Cc2ccc(O)cc2)NC(=O)[C@H](C(C)C)NC1=O [Example 1042] ({CH2CO}-FYLVYSGWY[NMeF]ACG-NH2; thioether N-12) |
| 38 | CC(C)C[C@@H]1NC(=O)[C@H](Cc2ccc(O)cc2)NC(=O)[C@H](Cc2ccccc2)NC(=O)CSC[C@@H](C(=O)NCC(N)=O)NC(=O)[C@H](CC(C)C)NC(=O)[C@H](Cc2ccccc2)N(C)C(=O)[C@H](Cc2ccc(O)cc2)NC(=O)[C@H](Cc2c[nH]c3ccccc23)NC(=O)CNC(=O)[C@H](Cc2ccccc2)NC(=O)[C@H](Cc2ccc(O)cc2)NC(=O)[C@H](C(C)C)NC1=O [Example 1043] ({CH2CO}-FYLVYFGWY[NMeF]LCG-NH2; thioether N-12) |
| 38 | CC(C)C[C@@H]1NC(=O)[C@H](Cc2ccc(O)cc2)NC(=O)[C@H](C(C)C)NC(=O)[C@H](CC(C)C)NC(=O)[C@H](Cc2ccc(O)cc2)NC(=O)[C@H](Cc2ccccc2)NC(=O)CSC[C@@H](C(=O)NCC(N)=O)NC(=O)[C@H](CC(C)C)NC(=O)[C@H](Cc2ccccc2)N(C)C(=O)[C@H](Cc2ccc(O)cc2)NC(=O)[C@H](Cc2c[nH]c3ccccc23)NC(=O)CNC1=O [Example 1044] ({CH2CO}-FYLVYLGWY[NMeF]LCG-NH2; thioether N-12) |
| 9 | CC(C)C[C@@H]1NC(=O)[C@H](Cc2ccc(O)cc2)NC(=O)[C@H](Cc2ccccc2)NC(=O)CSC[C@@H](C(=O)NCC(N)=O)NC(=O)[C@H](CC(C)C)NC(=O)[C@H](Cc2ccccc2)N(C)C(=O)[C@H](Cc2ccc(O)cc2)NC(=O)[C@H](Cc2c[nH]c3ccccc23)NC(=O)CNC(=O)[C@H](Cc2ccc(O)cc2)NC(=O)[C@H](Cc2ccc(O)cc2)NC(=O)[C@H](C(C)C)NC1=O [Example 1045] ({CH2CO}-FYLVYYGWY[NMeF]LCG-NH2; thioether N-12) |
| 6 | CC(C)C[C@@H]1NC(=O)[C@H](Cc2ccccc2)N(C)C(=O)[C@H](Cc2ccc(O)cc2)NC(=O)[C@H](Cc2c[nH]c3ccccc23)NC(=O)CNC(=O)[C@H](CO)NC(=O)[C@H](Cc2ccc(O)cc2)NC(=O)[C@H](C(C)C)NC(=O)[C@H](CCCNC(=N)N)NC(=O)[C@H](Cc2ccc(O)cc2)NC(=O)[C@H](Cc2ccccc2)NC(=O)CSC[C@@H](C(=O)NCC(N)=O)NC1=O [Example 1046] ({CH2CO}-FYRVYSGWY[NMeF]LCG-NH2; thioether N-12) |
| 243 | CC(C)C[C@@H]1NC(=O)[C@H](Cc2ccc(O)cc2)NC(=O)[C@H](Cc2ccccc2)NC(=O)CSC[C@@H](C(=O)NCC(N)=O)NC(=O)[C@H](CC(C)C)NC(=O)[C@H](Cc2ccccc2)N(C)C(=O)[C@H](Cc2ccc(O)cc2)NC(=O)[C@H](Cc2c[nH]c3ccccc23)NC(=O)[C@H](CCCNC(=N)N)NC(=O)[C@H](CO)NC(=O)[C@H](Cc2ccc(O)cc2)NC(=O)[C@H](C(C)C)NC1=O [Example 1047] ({CH2CO}-FYLVYSRWY[NMeF]LCG-NH2; thioether N-12) |
| 666 | CC(C)C[C@@H]1NC(=O)[C@H](Cc2ccc(O)cc2)NC(=O)[C@H](Cc2ccccc2)NC(=O)CSC[C@@H](C(=O)NCC(N)=O)NC(=O)[C@H](CC(C)C)NC(=O)[C@H](Cc2ccccc2)N(C)C(=O)[C@H](Cc2ccc(O)cc2)NC(=O)[C@H](Cc2c[nH]c3ccccc23)NC(=O)CNC(=O)[C@@H](C)NC(=O)[C@H](Cc2ccc(O)cc2)NC(=O)[C@H](C(C)C)NC1=O [Example 1048] ({CH2CO}-FYLVY[dA]GWY[NMeF]LCG-NH2; thioether N-12) |
| 19 | CC[C@H](C)[C@@H]1NC(=O)[C@H](Cc2ccccc2)NC(=O)CSC[C@@H](C(N)=O)NC(=O)[C@H](C)NC(=O)[C@H](Cc2ccc(O)cc2)NC(=O)[C@H](Cc2ccc(O)cc2)NC(=O)[C@H](Cc2c[nH]c3ccccc23)NC(=O)CNC(=O)[C@H](Cc2ccc(O)cc2)NC(=O)[C@H](CCCNC(=N)N)NC(=O)[C@H](C(C)C)NC(=O)[C@H](Cc2c[nH]c3ccccc23)NC1=O [Example 1049] ({CH2CO}-FIWVRYGWYYAC-NH2; thioether N-12) |
| 15 | CCC(C)[C@@H]1NC(=O)[C@H](Cc2c[nH]c3ccccc23)NC(=O)[C@H](Cc2ccccc2)NC(=O)[C@H](Cc2ccc(O)cc2)NC(=O)[C@@H](Cc2ccccc2)NC(=O)CSC[C@@H](C(N)=O)NC(=O)[C@H](C)NC(=O)[C@H](C(C)CC)NC(=O)[C@H](C(C)C)NC(=O)[C@H](Cc2c[nH]c3ccccc23)NC(=O)[C@H](CCCNC(=N)N)NC(=O)CNC1=O (some centres unmarked) [Example 1050] ({CH2CO}-[dF]YFW[Ile(3ξ)]GRWV[Ile(3ξ)]AC-NH2; thioether N-12) |
| 172 | CC(C)C[C@@H]1NC(=O)[C@H](CCCNC(=N)N)NC(=O)[C@H](Cc2ccccc2)NC(=O)CSC[C@@H](C(=O)NCC(N)=O)NC(=O)[C@H](CC(C)C)NC(=O)[C@H](Cc2ccccc2)N(C)C(=O)[C@H](Cc2ccc(O)cc2)NC(=O)[C@H](Cc2c[nH]c3ccccc23)NC(=O)CNC(=O)[C@H](CO)NC(=O)[C@H](Cc2ccc(O)cc2)NC(=O)[C@H](C(C)C)NC1=O [Example 1051] ({CH2CO}-FRLVYSGWY[NMeF]LCG-NH2; thioether N-12) |
| 367 | CC(C)C[C@@H]1NC(=O)[C@H](Cc2ccccc2)N(C)C(=O)[C@H](Cc2ccc(O)cc2)NC(=O)[C@H](Cc2c[nH]c3ccccc23)NC(=O)CNC(=O)[C@H](CO)NC(=O)[C@H](Cc2ccc(O)cc2)NC(=O)[C@H](C(C)C)NC(=O)[C@H](CCC(=O)O)NC(=O)[C@H](Cc2ccc(O)cc2)NC(=O)[C@H](Cc2ccccc2)NC(=O)CSC[C@@H](C(=O)NCC(N)=O)NC1=O [Example 1052] ({CH2CO}-FYEVYSGWY[NMeF]LCG-NH2; thioether N-12) |
